Data published in patent US9937162B2, “Methods of treating and preventing vascular instability diseases” (THE UNIVERSITY OF UTAH RESEARCH FOUNDATION, priority 2014, dated 2018).

Tests used:
RRAS = assay: R-Ras activation assay (pulldown, western blot) in HMVEC-D cells; format: cell-based; conditions: up to 10 μM, 60 minutes
Procedure: (§1) The timing of effects of cholecalciferol on the endothelium was assessed by evaluating the effect of knockdown of CCM2, and subsequent treatment with cholecalciferol, on a panel of signaling pathways associated with endothelial instability. The signaling pathways assessed included: ADP-ribosylation factor 6 (ARF6), cell division control protein 42 homolog (CDC42), transforming protein RhoA (RHOA), phosphorylation of myosin light chain (pMLC), Ras-related C3 botulinum toxin substrate 1 (RAC1), and Ras-related protein R-Ras (RRAS) (see Broman M T et al., Circ Res 98, 73-80 (2006); Broman M T et al., Trends Cardiovasc Med 17, 151-156 (2007); Eliceiri B P et al., Mol Cell 4, 915-924 (1999); Sawada J et al., Cancer Cell 22, 235-249 (2012); Weis S et al., J Cell Biol 167, 223-229 (2004); Wojciak-Stothard B et al., Vascul Pharmacol 39, 187-199 (2002); and Zhu W et al., Nature 492, 252-255 (2012)). […]
(§2) For RhoA, ARF6, Rac1/cdc42, and R-Ras activation assays, crude total cell lysate were generated and GTP-RhoA, ARF6, Rac1/cdc42, and R-Ras were precipitated with Rhotekin-RBD (EMD MILLIPORE), GGA3-PBD (CELL BIOLABS), PAK-1-PBD (EMD MILLIPORE), and Raf-1 RBD, respectively. […] RhoA, ARF6, Rac1/cdc42, and R-Ras were detected by western blotting with antibodies (RhoA, Rac1, and R-Ras antibodies were from CELL SIGNALING TECHNOLOGY; ARF6 and cad42 antibodies were from EMD MILLIPORE).

CDC42 = assay: cdc42 activation assay (pulldown, western blot) in HMVEC-D cells; format: cell-based; conditions: up to 10 μM, 60 minutes
Procedure: as §1, §2

Ccm2 ecKO mice = assay: Chronic treatment of Ccm2 ecKO mice, CCM lesions quantified by postmortem MRI; format: in vivo; conditions: treated from P5 to 5 months of age, tempol 1 mM in drinking water or cholecalciferol-enhanced chow (+25 IU/g D3)
Procedure: Chronic treatment studies of the effects of tempol and cholecalciferol in inducible endothelial-specific Ccm2 knockout mice (Ccm2^f/−; +/Tg(Pdgfb-iCreER^T2), also referred to herein as Ccm2 ecKO mice or endothelial knockout mice, were performed, inter alia, to evaluate the potential of tempol and/or cholecalciferol administration for the treatment of CCM disease (see Chan A C et al., J Clin Invest 121, 1871-1881 (2011) regarding the Ccm2 ecKO mice). 5 days after birth (P5), Ccm2 ecKO mice litters were assigned to a standard chow (HARLAN 2018, 1.5 IU/g D3), a standard chow plus tempol in drinking water (1 mM), or a cholecalciferol-enhanced chow (HARLAN 2018+25 IU/g D3). The chow was provided to the mother of each litter until the mice were weaned at P21. […]
At 5 months of age, mice were sacrificed by exsanguination (blood was collected for later analysis), and subsequent perfusion with saline and then 4% formaldehyde. […] Lesion area and number were quantified by two blinded reviewers using IMAGEJ and OSIRIX software. […]
The results of both reviewers were tabulated. […] FIG. 1B depicts a normalized number of CCM lesions as measured by MRI in Ccm2 ecKO mice. […] FIG. 1C is a graph depicting the number of lesions of various sizes as measured by MRI in Ccm2 ecKO mice. […]

pMLC = assay: Phosphorylation of myosin light chain (pMLC) in siCCM2 HMVEC-D cells; format: cell-based; conditions: siCCM2 HMVEC-D monolayers, 100 nM or 10 μM, 60 minutes
Procedure: The timing of effects of cholecalciferol on the endothelium was assessed by evaluating the effect of knockdown of CCM2, and subsequent treatment with cholecalciferol, on a panel of signaling pathways associated with endothelial instability. The signaling pathways assessed included: ADP-ribosylation factor 6 (ARF6), cell division control protein 42 homolog (CDC42), transforming protein RhoA (RHOA), phosphorylation of myosin light chain (pMLC), Ras-related C3 botulinum toxin substrate 1 (RAC1), and Ras-related protein R-Ras (RRAS) (see Broman M T et al., Circ Res 98, 73-80 (2006); Broman M T et al., Trends Cardiovasc Med 17, 151-156 (2007); Eliceiri B P et al., Mol Cell 4, 915-924 (1999); Sawada J et al., Cancer Cell 22, 235-249 (2012); Weis S et al., J Cell Biol 167, 223-229 (2004); Wojciak-Stothard B et al., Vascul Pharmacol 39, 187-199 (2002); and Zhu W et al., Nature 492, 252-255 (2012)).
Wild-type, siCTRL, or siCCM2 treated HMVEC-D cells were incubated with either 100 nM or 10 μM cholecalciferol (TOCRIS BIOSCIENCE), 7-DHC (SIGMA-ALDRICH), or vehicle (0.5% DMSO) for 60 minutes (pMLC, ARF6, RAC, CDC42, RRAS) or 24 hours (RHOA), unless otherwise indicated. After treatment, the cells were washed with ice-cold PBS and lysed in 50 mM Tris pH 7.4, 150 mM NaCl, 10 mM MgCl2, 10% glycerol, 1% NP-40, 1× protease inhibitors, and 1× phosphatase inhibitors.

RHOA = assay: RhoA activation assay (GTP-RhoA pulldown, western blot) in siCCM2 HMVEC-D cells; format: cell-based; conditions: siCCM2 HMVEC-D monolayers, 100 nM or 10 μM, 24 hours
Procedure: as §1, §2

RAC1 = assay: Rac1 activation assay (pulldown, western blot) in HMVEC-D cells; format: cell-based; conditions: up to 10 μM, 60 minutes
Procedure: as §1, §2

ARF6 = ARF6 activation assay (GTP-ARF6 pulldown, western blot) in siCCM2 HMVEC-D cells; format: cell-based
Procedure: as §1, §2

Row | SMILES | basal activation of RRAS (RRAS) | basal activation of CDC42 (CDC42) | number of CCM lesions as measured by MRI, compared to standard chow (Ccm2 ecKO mice) | CCM2 knockdown-induced activation of pMLC (pMLC) | CCM2 knockdown-induced activation of RHOA (RHOA) | basal activation of RAC1 (RAC1) | time to inhibition of ARF6 activation (ARF6; siCCM2 HMVEC-D cells, time course) | CCM2 knockdown-induced activation of ARF6 (ARF6; siCCM2 HMVEC-D monolayers, 100 nM or 10 μM, 60 minutes)
1 | C=C1CC[C@H](O)C/C1=C/C=C1\CCC[C@]2(C)[C@@H]([C@H](C)CCCC(C)C)CC[C@@H]12 [cholecalciferol] | nor did treatment of up to 10 μM cholecalciferol appear to basally inhibit activation | nor did treatment of up to 10 μM cholecalciferol appear to basally inhibit activation | approximately half as many lesions | inhibited | inhibited | nor did treatment of up to 10 μM cholecalciferol appear to basally inhibit activation | ≤ 5 min | inhibited
2 | CC1(C)CC(O)CC(C)(C)N1[O] [tempol, 4-hydroxy-2,2,6,6-tetramethylpiperidine 1-oxyl] | – | – | approximately half as many lesions | – | – | – | – | –
